Assay results as given in patent US9017956B2, “Use of the genes in the Hog, Ras and cAMP pathway for treatment of fungal infection” (Nutrex Technology Co., Ltd., priority 2009, dated 2015).
Entries after “also recorded” stand apart in the source; their conditions may differ.

What was measured:
[1] = system: C. neoformans serotype A H99 strain and its deletion mutants; experiment: Antifungal drug sensitivity test: serially diluted cells spotted on YPD agar containing the drug; assay type: cell-based, Cryptococcus neoformans; conditions: for drug sensitivity of hog1Δ mutant compared to WT / drug sensitivity of pbs2Δ mutant compared to WT / drug sensitivity of skn7Δ mutant compared to WT / drug sensitivity of ssk1Δ mutant compared to WT / drug sensitivity of ssk2Δ mutant compared to WT / drug sensitivity of tco2Δ mutant compared to WT: YPD agar, 30° C., 72 h
Experimental: (§1) Each strain was incubated overnight at 30° C. in YPD medium, washed, serially diluted (1 to 10^4 dilutions) in dH2O, and spotted (3 μl) onto solid YPD medium containing indicated concentrations of stress-inducing agents or antifungal drugs as previously described in “Bahn Y S, Kojima K, Cox G M, Heitman J (2005) Mol Biol Cell 16: 2285-2300.” and “Bahn Y S, Kojima K, Cox G M, Heitman J (2006) Mol Biol Cell 17: 3122-3135”. To examine antifungal drug sensitivity, the cells were spotted on agar-solid YPD media containing amphotericin B (Sigma), fluconazole (Sigma), itraconazole (Sigma), ketoconazole (Sigma) and fludioxonil. Then spotted cells were incubated at 30° C. for 2-4 days and photographed.

[2] = system: C. neoformans serotype D strains JEC21 and B3501 and their deletion mutants; experiment: as above; assay type: cell-based, Cryptococcus neoformans
Experimental: as §1

C[C@@H]1[C@H](O)[C@@H](C)/C=C/C=C/C=C/C=C/C=C/C=C/C=C/[C@H](O[C@@H]2O[C@H](C)[C@@H](O)[C@H](N)[C@@H]2O)C[C@@H]2O[C@](O)(C[C@@H](O)C[C@@H](O)[C@H](O)CC[C@@H](O)C[C@@H](O)CC(=O)O[C@H]1C)C[C@H](O)[C@H]2C(=O)O [amphotericin B]
drug sensitivity of aca1Δ mutant compared to WT ([1]; aca1Δ, H99 background): slightly higher AmpB susceptibility | drug sensitivity of cac1Δ mutant compared to WT ([1]; H99 background): hypersensitive | drug sensitivity of cac1Δ mutant compared to WT ([1]; H99 background, listed as AmpB): much higher AmpB-sensitivity | drug sensitivity of ena1Δ mutant ([1]; ena1Δ): did not show high sensitivity | drug sensitivity of ena1Δ nha1Δ double mutant ([1]; ena1Δ nha1Δ): considerably increased sensitivity | drug sensitivity of gpa1Δ mutant compared to WT ([1]; H99 background): hypersensitive | drug sensitivity of gpa1Δ mutant compared to WT ([1]; H99 background, listed as AmpB): much higher AmpB-sensitivity | drug sensitivity of hog1Δ cac1Δ double mutant ([1]; compared to single mutants): even more sensitive | drug sensitivity of hog1Δ pka1Δ double mutant ([1]; hog1Δ pka1Δ, compared to single mutants): even more sensitive | drug sensitivity of hog1Δ mutant compared to WT ([1]; H99 background): dramatic hypersensitivity | drug sensitivity of hsp12Δ mutant compared to WT ([1]; hsp12Δ, H99 background): slightly higher susceptibility | drug sensitivity of hsp122Δ mutant compared to WT ([1]; hsp122Δ, H99 background): slightly higher susceptibility | drug sensitivity of nha1Δ mutant ([1]; nha1Δ): did not show high sensitivity | drug sensitivity of pbs2Δ mutant compared to WT ([1]; H99 background): dramatic hypersensitivity | drug sensitivity of pka1Δ mutant compared to WT ([1]; H99 background): hypersensitive | drug sensitivity of pka1Δ mutant compared to WT ([1]; H99 background, listed as AmpB): increased susceptibility | drug sensitivity of ras1Δ aca1Δ double mutant ([1]; compared to each single mutant): hypersensitive | drug sensitivity of ras1Δ aca1Δ double mutant ([1]; compared to each single mutant, listed as AmpB): higher AmpB-sensitivity than each single mutant | drug sensitivity of ras1Δ cac1Δ double mutant ([1]; ras1Δ cac1Δ, compared to each single mutant): even higher AmpB susceptibility than each single mutant | drug sensitivity of ras1Δ mutant compared to WT ([1]; ras1Δ, H99 background): higher susceptibility | drug sensitivity of ras2Δ mutant compared to WT ([1]; ras2Δ, H99 background): slightly more sensitive | drug sensitivity of skn7Δ mutant compared to WT ([1]; H99 background): WT-levels of resistance | drug sensitivity of ssk1Δ mutant compared to WT ([1]; H99 background): dramatic hypersensitivity | drug sensitivity of ssk2Δ mutant compared to WT ([1]; H99 background): dramatic hypersensitivity | drug sensitivity of tco2Δ mutant compared to WT ([1]; H99 background): hypersensitivity | drug resistance of B3501 strain compared to JEC21 ([2]; B3501 (Hog1 constitutively phosphorylated)): higher resistance | drug sensitivity of JEC21 strain ([2]; JEC21 (Hog1 not constitutively phosphorylated), compared with ssk2Δ mutant in H99 background): hypersensitivity | effect of HOG1 mutation on drug sensitivity in JEC21 background ([2]; hog1Δ in JEC21): did not affect sensitivity | effect of PBS2 mutation on drug sensitivity in JEC21 background ([2]; pbs2Δ in JEC21): did not affect sensitivity | effect of SSK2 mutation on drug sensitivity in B3501 background ([2]; ssk2Δ in B3501): increased the amphotericin B sensitivity | effect of SSK2 mutation on drug sensitivity in JEC21 background ([2]; ssk2Δ in JEC21): did not affect sensitivity

CC(=O)N1CCN(c2ccc(OCC3COC(Cn4ccnc4)(c4ccc(Cl)cc4Cl)O3)cc2)CC1 (centres unmarked) [ketoconazole]
drug sensitivity of hog1Δ cac1Δ double mutant ([1]; compared to single mutants): hypersensitivity; also recorded: hypersensitive | drug sensitivity of hog1Δ mutant compared to WT ([1]; H99 background): hyper-resistance | drug sensitivity of pbs2Δ mutant compared to WT ([1]; H99 background): hyper-resistance | drug sensitivity of skn7Δ mutant compared to WT ([1]; H99 background): higher resistance | drug sensitivity of ssk1Δ mutant compared to WT ([1]; H99 background): hyper-resistance | drug sensitivity of ssk2Δ mutant compared to WT ([1]; H99 background): hyper-resistance | drug sensitivity of tco2Δ mutant compared to WT ([1]; H99 background): higher resistance

OC(Cn1cncn1)(Cn1cncn1)c1ccc(F)cc1F [fluconazole]
drug sensitivity of cac1Δ mutant compared to WT ([1]; H99 background): nearly as resistant | drug sensitivity of gpa1Δ mutant compared to WT ([1]; H99 background): nearly as resistant | drug sensitivity of hog1Δ cac1Δ double mutant ([1]; compared to single mutants): hypersensitivity; also recorded: hypersensitive | drug sensitivity of hog1Δ mutant compared to WT ([1]; H99 background): hyper-resistance | drug sensitivity of pbs2Δ mutant compared to WT ([1]; H99 background): hyper-resistance | drug sensitivity of pka1Δ pka2Δ double mutant compared to WT ([1]; pka1Δ pka2Δ, H99 background): nearly as resistant | drug sensitivity of pka1Δ mutant compared to WT ([1]; H99 background): nearly as resistant | drug sensitivity of pka2Δ mutant compared to WT ([1]; pka2Δ, H99 background): nearly as resistant | drug sensitivity of skn7Δ mutant compared to WT ([1]; H99 background): higher resistance | drug sensitivity of ssk1Δ mutant compared to WT ([1]; H99 background): hyper-resistance | drug sensitivity of ssk2Δ mutant compared to WT ([1]; H99 background): hyper-resistance | drug sensitivity of tco2Δ mutant compared to WT ([1]; H99 background): higher resistance
